ChEMBL document CHEMBL5380791, “Modular Biomimetic Strategy Enabled Discovery of Simplified Pseudo-Natural Macrocyclic P-Glycoprotein Inhibitors Capable of Overcoming Multidrug Resistance” (J Med Chem, 2023)
pIC50: −log10 of the molar value. Activity calls are given as the source filed them. The rule behind the calls is not given here.

How the values were obtained:
[1] = system: KBv200; test: Reversal fold, ratio of vinorelbine IC50 for cytotoxicity against human KBv200 cells over test compound IC50 for reversal of vinorelbine resistance in human KBv200 cells; format: functional
[2] = system: KBv200; test: Reversal of vinorelbine resistance in human KBv200 cells assessed as reduction in cell viability incubated for 72 hrs in presence of vinorelbine (reference value: 224 to 228.30 nM); format: functional, cell-based; conditions: KBv200, 72 h
[3] = system: KBv200; test: Induction of apoptosis in human KBv200 cells assessed as increase in cleaved caspase 3 level at 5 uM incubated for 24 hrs by Western blotting analysis; format: functional, cell-based
[4] = system: KBv200; test: Antitumor activity against human KBv200 cells xenografted in Balb/cA nude mouse assessed as T/C ratio at 8 mg/kg, iv q4d administered for 13 days; format: functional; conditions: time 13 day
[5] = system: KBv200; test: Antitumor activity against human KBv200 cells xenografted in Balb/cA nude mouse assessed as mean tumor volume at 8 mg/kg, iv administered as single dose and measured on day 0; format: functional
[6] = system: KBv200; test: Induction of apoptosis in human KBv200 cells assessed as increase in cleaved caspase 9 level at 5 uM incubated for 24 hrs by Western blotting analysis; format: functional, cell-based
[7] = system: KBv200; test: Antitumor activity against human KBv200 cells xenografted in Balb/cA nude mouse assessed as tumor growth inhibition at 8 mg/kg, iv q4d administered for 13 days; format: functional; conditions: KBv200, 312 h, time 13 day
[8] = system: KBv200; test: Antitumor activity against human KBv200 cells xenografted in Balb/cA nude mouse assessed as mean tumor volume at 8 mg/kg, iv q4d administered for 13 days; format: functional; conditions: time 13 day
[9] = system: KBv200; test: Induction of apoptosis in human KBv200 cells assessed as increase in cleaved PARP level at 5 uM incubated for 24 hrs by Western blotting analysis; format: functional, cell-based
[10] = Toxicity in Balb/cA nude mouse xenografted with human KBv200 cells assessed as changes in body weight at 75 mg/kg, ip qd administered for 13 days in presence of vinorelbine; format: organism-based; conditions: in vivo, 312 h, time 13 day
[11] = Toxicity in Balb/cA nude mouse xenografted with human KBv200 cells assessed as mortality at 75 mg/kg, ip qd administered for 13 days in presence of vinorelbine; format: organism-based; conditions: in vivo, 312 h, time 13 day
[12] = system: K562; test: Reversal of vinorelbine resistance in human K562 cells assessed as reduction in cell viability incubated for 72 hrs in presence of vinorelbine (reference value: 5.9+/-0.2 nM); format: functional, cell-based; conditions: K562, 72 h
[13] = system: OVCAR-8; test: Reversal of vinorelbine resistance in human OVCAR-8 cells assessed as reduction in cell viability incubated for 72 hrs in presence of vinorelbine (reference value: 16.2+/-4.7 nM); format: functional, cell-based; conditions: OVCAR-8, 72 h
[14] = system: K562/Adr; test: Reversal of vinorelbine resistance in human K562/Adr cells assessed as reduction in cell viability incubated for 72 hrs in presence of vinorelbine (reference value: 7320.6+/-2115.2 nM); format: functional, cell-based
[15] = system: KBv200; test: Reversal of paclitaxel resistance in human KBv200 cells assessed as reduction in cell viability incubated for 72 hrs in presence of paclitaxel (reference value: 392.9+/-196.5 nM); format: functional, cell-based; conditions: KBv200, 72 h
[16] = system: KBv200; test: Reversal of adriamycin resistance in human KBv200 cells assessed as reduction in cell viability incubated for 72 hrs in presence of adriamycin (reference value: 1291.2+/-308.9 nM); format: functional, cell-based; conditions: KBv200, 72 h
[17] = system: KB; test: Reversal of vinorelbine resistance in human KB cells assessed as reduction in cell viability incubated for 72 hrs in presence of vinorelbine (reference value: 7.4+/-2.2 nM); format: functional, cell-based
[18] = system: NCI/ADR-RES; test: Reversal of vinorelbine resistance in human NCI/ADR-RES cells assessed as reduction in cell viability incubated for 72 hrs in presence of vinorelbine (reference value: 6125.7+/-3267.7 nM); format: functional, cell-based

| Compound | Ratio IC50 [1] | pIC50 ([2]; read-out: IC50) | other results |
| --- | --- | --- | --- |
| O=C1CCCCCCCCCCCNC(=O)[C@H](Cc2cn([C@@H]3O[C@H](CO)[C@@H](O)[C@H](O)[C@H]3O)nn2)NC(=O)/C(c2ccccc2)=C\C=C(\c2ccccc2)CN1 | 1.3 | 6.77 |  |
| CC(C)C[C@@H]1NC(=O)/C(c2ccccc2)=C\C=C(\c2ccccc2)CNC(=O)CCCCCCCCCCCNC1=O | 415 | 9.26 |  |
| CC(C)[C@@H]1NC(=O)/C(c2ccccc2)=C/C=C(/c2ccccc2)CNC(=O)CCCCCCCNC1=O | 5 | 7.33 |  |
| CC(C)[C@@H]1NC(=O)/C(c2ccccc2)=C\C=C/CNC(=O)CCCCCCCCCCCNC1=O | 61 | 8.42 |  |
| CC(C)[C@@H]1NC(=O)/C(c2ccccc2)=C\C=C(\c2ccccc2)CNC(=O)CCCCCCCCCCCNC1=O | 192 | 8.92 |  |
| O=C1CCCCCCCCCCCNC(=O)[C@H](Cc2cn([C@@H]3O[C@H](CO)[C@H](O)[C@H](O)[C@H]3O)nn2)NC(=O)/C(c2ccccc2)=C\C=C(\c2ccccc2)CN1 | 1.6 | 6.85 |  |
| CC(C)[C@H]1NC(=O)/C(c2cccc3ccccc23)=C\C=C(\c2ccccc2)CNC(=O)CCCCCCCCCCCNC1=O | 1291 | 9.68 |  |
| O=C1CCCCCCCCCCCNC(=O)[C@H](Cc2ccccc2)NC(=O)/C(c2cccc3ccccc23)=C\C=C(\c2ccccc2)CN1 | 4566 | 10.30 |  |
| CCC1=C[C@@H]2CN(C1)Cc1c([nH]c3ccccc13)[C@@](C(=O)OC)(c1cc3c(cc1OC)N(C)[C@H]1[C@@](O)(C(=O)OC)[C@H](OC(C)=O)[C@]4(CC)C=CCN5CC[C@]31[C@@H]54)C2 [VINORELBINE] |  |  | Activity [3]: inactive; T/C [4]: 82%; Activity [5]: 122.3 mm3; Activity [6]: inactive; inhibition in vivo at 8 mg/kg [7]: 18%; Activity [8]: 1727.4 mm3; Activity [9]: inactive; Activity [10]: Non-Toxic; Activity [11]: Non-Toxic |
| CC(C)[C@@H]1NC(=O)/C(c2ccccc2)=C\C=C(\c2ccccc2)CNC(=O)CCOCCOCCOCCNC1=O | 1.8 | 6.90 |  |
| CC(C)C1NC(=O)/C(c2ccccc2)=C\C=C(\c2ccccc2)CNC(=O)CCCCCCCCCCCNC1=O (stereo not drawn) | 202 | 8.95 |  |
| CSCC[C@@H]1NC(=O)/C(c2ccccc2)=C\C=C(\c2ccccc2)CNC(=O)CCCCCCCCCCCNC1=O | 184 | 8.91 |  |
| O=C1CCCCCCCCCCCNC(=O)[C@@H]2CCCN2C(=O)/C(c2ccccc2)=C\C=C(\c2ccccc2)CN1 | 26 | 8.06 |  |
| CC(C)[C@@H]1NC(=O)/C(c2ccccc2)=C\C=C(\c2ccc(F)cc2)CNC(=O)CCCCCCCCCCCNC1=O | 543 | 9.38 |  |
| COc1ccc(/C2=C/C=C(/c3ccccc3)CNC(=O)CCCCCCCCCCCNC(=O)[C@H](C(C)C)NC2=O)cc1 | 519 | 9.36 |  |
| O=C1CCCCCCCCCCCNC(=O)CNC(=O)/C(c2ccccc2)=C\C=C(\c2ccccc2)CN1 | 9 | 7.61 |  |

| Compound | Ratio IC50 [1] | pIC50 ([2]; read-out: IC50) | other results |
| --- | --- | --- | --- |
| COc1ccc(CCN(C)CCCC(C#N)(c2ccc(OC)c(OC)c2)C(C)C)cc1OC (stereo not drawn) [VERAPAMIL] | 33 |  | pIC50 [12]: 8.37; pIC50 [13]: 8.07; pIC50 [14]: 6.35; pIC50 [2]: 8.16; pIC50 [15]: 7.74; pIC50 [16]: 6.84; pIC50 [17]: 8.36; pIC50 [18]: 6.54 |
| O=C1CCCCCCCCCCCNC(=O)[C@H](Cc2c[nH]c3ccccc23)NC(=O)/C(c2ccccc2)=C\C=C(\c2ccccc2)CN1 | 2 | 6.85 |  |
| COc1ccc(/C2=C/C=C(/c3ccccc3)CNC(=O)CCCCCCCCCCCNC(=O)[C@H](C(C)C)NC2=O)cc1OC | 63 | 8.44 |  |
| NC(=O)CC[C@@H]1NC(=O)/C(c2ccccc2)=C\C=C(\c2ccccc2)CNC(=O)CCCCCCCCCCCNC1=O | 1 | 6.68 |  |
| O=C1CCCCCCCCCCCNC(=O)[C@H](Cc2ccc(O)cc2)NC(=O)/C(c2ccccc2)=C\C=C(\c2ccccc2)CN1 | 130 | 8.75 |  |
| C#CC[C@@H]1NC(=O)/C(c2ccccc2)=C\C=C(\c2ccccc2)CNC(=O)CCCCCCCCCCCNC1=O | 63 | 8.44 |  |
| CC(C)[C@@H]1NC(=O)/C(c2cccc3ccccc23)=C\C=C(\c2ccccc2)CNC(=O)CCCCCCCCCCCNC1=O | 761 | 9.52 |  |
| O=C1CCCCCCCCCCCNC(=O)[C@H](Cc2ccccc2)NC(=O)/C(c2ccccc2)=C\C=C(\c2ccccc2)CN1 | 601 | 9.42 |  |
| CC(C)[C@@H]1NC(=O)/C(c2ccc(Br)cc2)=C\C=C(\c2ccccc2)CNC(=O)CCCCCCCCCCCNC1=O | 570 | 9.40 |  |
| CC(C)[C@H](NC(=O)/C(=C/C=C(/CNC(=O)CCCCCCCCCCCN)c1ccccc1)c1ccccc1)C(=O)O | 1.1 | 6.70 |  |
| NCCCC[C@@H]1NC(=O)/C(c2ccccc2)=C\C=C(\c2ccccc2)CNC(=O)CCCCCCCCCCCNC1=O | 0.8 | 6.54 |  |
| CC(C)[C@@H]1NC(=O)C(c2ccccc2)CCC(c2ccccc2)CNC(=O)CCCCCCCCCCCNC1=O (stereo partly drawn) | 64 | 8.45 |  |
| CC(C)[C@@H]1NC(=O)/C(c2ccccc2)=C\C=C(\c2ccccc2)CNC(=O)CCCCCCCCCNC1=O | 50 | 8.34 |  |
| CC(=O)N[C@@H]1[C@@H](OC(C)=O)[C@H](OC(C)=O)[C@@H](COC(C)=O)O[C@H]1n1cc(C[C@@H]2NC(=O)/C(c3ccccc3)=C\C=C(\c3ccccc3)CNC(=O)CCCCCCCCCCCNC2=O)nn1 | 0.9 | 6.61 |  |
| COc1ccc(/C2=C/C=C(/c3ccccc3)C(=O)N[C@@H](C(C)C)C(=O)NCCCCCCCCCCCC(=O)NC2)cc1 | 148 | 8.81 |  |
| CC(=O)N[C@@H]1[C@@H](O)[C@H](O)[C@@H](CO)O[C@H]1n1cc(C[C@@H]2NC(=O)/C(c3ccccc3)=C\C=C(\c3ccccc3)CNC(=O)CCCCCCCCCCCNC2=O)nn1 | 1.5 | 6.82 |  |
